Data taken from patent publication US9815851B2, “Pyrrolo carboxamides as modulators of orphan nuclear receptor RAR-related orphan receptor-gamma (RORγ, NR1F3) activity and for the treatment of chronic inflammatory and autoimmune diseases” (PHENEX PHARMACEUTICALS AG, priority 2011, dated 2017).
Like-named read-outs stand apart in the source and are kept apart here.

Columns and labels:
[1] = biological target: T1, RORγ ligand binding domain (LBD) (Homo sapiens, UniProt P51449); assay: TR-FRET Activity Assay (ligand sensing, RORγ-LBD / coactivator peptide interaction, LANCE); assay type: biochemical
T1 construct: made in house; host or cells: E. coli BL-21 (BL3), vector pDEST15
T1 sequence (P51449 269-508 limits assumed): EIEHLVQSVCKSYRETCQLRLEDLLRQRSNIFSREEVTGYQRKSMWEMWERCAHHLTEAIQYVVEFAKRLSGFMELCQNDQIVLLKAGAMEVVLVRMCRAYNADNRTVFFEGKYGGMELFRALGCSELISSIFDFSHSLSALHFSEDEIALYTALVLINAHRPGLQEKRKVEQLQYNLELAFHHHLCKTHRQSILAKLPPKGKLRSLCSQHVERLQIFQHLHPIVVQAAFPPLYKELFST

RORγ = biological target: T2, RORγ (UniProt P51449); assay: RORγ Gal4 Reporter Gene Assay in 293T cells (firefly and renilla luciferase); assay type: cell-based, human
T2 sequence (P51449 1-518): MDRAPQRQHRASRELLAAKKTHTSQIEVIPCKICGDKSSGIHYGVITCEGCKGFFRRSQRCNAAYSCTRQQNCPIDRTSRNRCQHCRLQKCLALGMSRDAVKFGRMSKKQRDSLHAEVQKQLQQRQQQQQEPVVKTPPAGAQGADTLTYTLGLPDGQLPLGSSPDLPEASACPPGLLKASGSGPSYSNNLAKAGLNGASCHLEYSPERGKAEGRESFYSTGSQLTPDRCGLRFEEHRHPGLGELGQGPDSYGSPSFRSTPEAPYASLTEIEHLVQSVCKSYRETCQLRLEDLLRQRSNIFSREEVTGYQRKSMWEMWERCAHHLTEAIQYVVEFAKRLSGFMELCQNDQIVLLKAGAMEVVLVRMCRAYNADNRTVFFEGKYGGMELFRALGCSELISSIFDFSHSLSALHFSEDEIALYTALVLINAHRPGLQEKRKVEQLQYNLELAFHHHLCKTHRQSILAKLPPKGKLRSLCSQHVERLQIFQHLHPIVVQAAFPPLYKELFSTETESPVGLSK

[2] = first value of the cell FRET/FF/REN, TR-FRET activity assay, read-out: pIC50 (FRET) (converted)
[3] = second value of the cell, Gal4 reporter gene assay in 293T cells, firefly luciferase
[4] = third value of the cell, Gal4 reporter gene assay in 293T cells, renilla normalised luciferase

Structure (SMILES)	IC50 [1] [nM]	pIC50 (FF) (RORγ)	pIC50 (REN) (RORγ)	IC50 [1, 2] [nM]	pIC50 (FF) (RORγ; [3])	pIC50 (REN) (RORγ; [4])
Cc1c(C(=O)NC2CS(=O)(=O)C2)cc(-c2cc(C(C)(C)C)cc(C(C)(C)C)c2)n1CC1CCCCC1 [Example 3, 1-(Cyclohexylmethyl)-5-(3,5-di-tert-butylphenyl)-N-(1,1-dioxidothietan-3-yl)-2-methyl-1H-pyrrole-3-carboxamide]	251	6.6/7.4/7.4	6.6/7.4/7.4	–	–	–
CCC(C)(C)NS(=O)(=O)c1ccc(-c2cc(C(=O)NC3CCOCC3)c(C)n2CC2CCC2)cc1C(F)(F)F [17/217]	–	–	–	126	7.6	7.7
Cc1c(C(=O)NC2CCOCC2)cc(-c2ccc(S(=O)(=O)N3CCCCC3(C)C)c(C(F)(F)F)c2)n1CC1CCCCC1 [17/69]	–	–	–	> 20000	7.2	7.4
Cc1c(C(=O)NC2CCOCC2)cc(-c2ccc(S(=O)(=O)NC(C)(C)C)c3c2CCCC3)n1CC1CCCCC1 [17/280]	–	–	–	1000	8.1	8.1
Cc1c(C(=O)N[C@H]2CC[C@H](C(=O)O)CC2)cc(-c2ccc(S(=O)(=O)NC(C)(C)C)c(C(F)(F)F)c2)n1CC1CCCCC1 [17/223]	–	–	–	398	7.1	7.2
Cc1c(C(=O)NCCC(C)(C)C(=O)O)cc(-c2ccc(S(=O)(=O)NC(C)(C)C)c(OC(F)(F)F)c2)n1CC1CCCCC1 [17/172]	–	–	–	398	7.5	7.5
Cc1c(C(=O)NC[C@H]2CC[C@H](C(=O)O)CC2)cc(-c2cc(C(C)(C)C)c3c(c2)C2(CCO3)CC2)n1CC1CCCCC1 [17/59]	2000	5.7/6.6/6.6	5.7/6.6/6.6	–	–	–
Cc1c(C(=O)NC2CCOCC2)cc(-c2ccc(S(=O)(=O)N[C@@H](C)C(F)(F)F)c(C(C)(C)C)c2)n1CC1CCCCC1 [17/151]	–	–	–	316	8.3	8.3
Cc1c(C(=O)NC2CCOCC2)cc(-c2ccc(C(C)(C)C(=O)NC(C)(C)C)c(C(F)(F)F)c2)n1CC1CCCCC1 [17/132]	–	–	–	3980	6.3	6.2
Cc1c(C(=O)NC2CCOCC2)cc(-c2cc(F)c(NS(=O)(=O)C(C)(C)C)c(C(F)(F)F)c2)n1CC1CCCCC1 [17/248]	–	–	–	2510	6.4	7.3
Cc1c(C(=O)NCC2COCCN2C)cc(-c2cc(C(C)(C)C)c3c(c2)C2(CCO3)CC2)n1CC1CCCCC1 (stereo not drawn) [17/14]	–	–	–	1260	5.9	5.7
CCC(C)(C)NS(=O)(=O)c1ccc(-c2cc(C(=O)N[C@H]3C[C@H](C(=O)O)C3)c(C)n2CC2CCCCC2)c(Cl)c1C [17/197]	–	–	–	794	7.9	7.7
Cc1c(C(=O)NC2COC2)cc(-c2cc(C(C)(C)C)cc(C(C)(C)C)c2)n1CCC1CCCC1 [1/116]	–	–	–	126	6.9/6.9/6.9	6.9/6.9/6.9
CC(C)(C)NS(=O)(=O)c1ccc(-c2cc(C(=O)NC3CCOCC3)cn2CC2CCCCC2)cc1C(C)(C)C [17/116]	631	–	–	–	7.3	7.3
Cc1c(C(=O)NC2COC2)cc(-c2cc(C(C)C)c3c(c2)C(C)(C)N(C(C)C)S3(=O)=O)n1CC1CCCCC1 [1/22]	–	–	–	1000	6.9	6.9
CC(C)(CCNC(=O)c1cc(-c2cc(C(C)(C)C)cc(C3(C)CC3)c2)n(CC2CCCCC2)c1F)C(=O)O [20/5]	–	–	–	794	7.0	7.0
Cc1c(C(=O)NC2CCOCC2)cc(-c2ccc(-c3ccnn3C(C)C)c(C(C)(C)O)c2)n1CC1CCCCC1 [Example 27, 1-(Cyclohexylmethyl)-5-(3-(2-hydroxypropan-2-yl)-4-(1-isopropyl-1H-pyrazol-5-yl)phenyl)-2-methyl-N-(tetrahydro-2H-pyran-4-yl)-1H-pyrrole-3-carboxamide]	–	–	–	2000	6.4	6.5
Cc1c(C(=O)NCCC[S+](C)[O-])cc(-c2cc(C(C)(C)C)c3c(c2)C2(CCO3)CC2)n1CC1CCCCC1 (stereo not drawn) [17/2]	1000	6.0/6.6/6.5	6.0/6.6/6.5	–	–	–
Cc1c(C(=O)NC2(C)CCOCC2)cc(-c2ccc(S(=O)(=O)NC(C)(C)C)c(C(F)(F)F)c2)n1CC1CCCCC1 [17/209]	200	6.7/7.3/7.6	6.7/7.3/7.6	–	–	–
Cc1c(C(=O)NC2CS(=O)(=O)C2)cc(-c2ccc(S(=O)(=O)NC(C)(C)C)c(C(C)(C)C)c2)n1CC1CCCCC1 [17/91]	631	6.2/7.1/7.0	6.2/7.1/7.0	–	–	–
Cc1c(C(=O)NC2CCOCC2)cc(-c2ccc(S(=O)(=O)NC(C)(C)C)c(C(F)(F)F)c2)n1CC1CCCC(C(F)(F)F)C1 (stereo not drawn) [17/87]	501	6.3/6.9/6.9	6.3/6.9/6.9	–	–	–
Cc1c(C(=O)NC2CCOCC2)cc(-c2ccc(S(=O)(=O)NC(C)(C)C)c3cccnc23)n1CC1CCCCC1 [17/282]	–	–	–	2000	6.6	6.7
Cc1c(C(=O)NCC2(CCO)COC2)cc(-c2cc(C(C)(C)C)cc(C(C)(C)C)c2)n1CC1CCCCC1 [17/44]	631	6.2/6.1/6.1	6.2/6.1/6.1	–	–	–
Cc1c(C(=O)NC2CCOCC2)cc(-c2ccc(C(=O)NC3CCCCC3)c(C(C)(C)C)c2)n1CC1CCCCC1 [6/6]	631	6.2/6.8/6.7	6.2/6.8/6.7	–	–	–
COCCNC(=O)c1cc(-c2cc(C(C)(C)C)c(O)c(C(C)(C)C)c2)n(CC2CCCCC2)c1C [1/46]	316	6.5/6.5/6.5	6.5/6.5/6.5	–	–	–
Cc1c(C(=O)NCC(C)(C)C(N)=O)cc(-c2cc(C(C)(C)C)cc(C(C)(C)C)c2)n1CC1CCCCC1 [1/3]	398	6.4/7.6/7.5	6.4/7.6/7.5	–	–	–
Cc1c(C(=O)N[C@H]2C[C@H](C(=O)O)C2)cc(-c2cc(OC(F)(F)F)cc(C(=O)NC(C)(C)C)c2)n1CC1CCCCC1 [17/351]	–	–	–	2000	6.8	6.9
